One block for each compound: values may come before it.
Tests used:
[1] = test system: L1210; experiment: In vitro inhibitory concentration required for 50% inhibition of L1210 cell growth; assay type: functional; details: Mus musculus, read-out: ID50 (the source's name)
[2] = test system: L1210; experiment: Ratio of the median survival time (treated(T) versus control(C)) at a dose of 75 mg/kg on days 1 and 5; assay type: functional, Mus musculus
[3] = test system: L1210; experiment: Median survival time at a compound dose of 25 mg/kg, in mice bearing L1210 cells on days 1 and 5; assay type: functional, Mus musculus
[4] = test system: L1210; experiment: Median survival time at a compound dose of 75 mg/kg, in mice bearing L1210 cells on days 1 and 5; assay type: functional, Mus musculus
[5] = test system: L1210; experiment: Median survival time at a compound dose of 50 mg/kg, in mice bearing L1210 cells on days 1 and 5; assay type: functional, Mus musculus
[6] = test system: L1210; experiment: Ratio of the median survival time (treated(T) versus control(C)) at a dose of 25 mg/kg, on days 1 and 5; assay type: functional, Mus musculus
[7] = The number of mice survived to that of total at a dose of 50 mg/kg on 30th day; 0/5; assay type: functional
[8] = The number of mice survived to that of total at a dose of 25 mg/kg on 30th day; 0/5; assay type: functional
[9] = The number of mice survived to that of total at a dose of 75 mg/kg on 30th day; 0/5; assay type: functional
[10] = test system: L1210; experiment: Median survival time when no dose was administered in mice bearing L1210 cells on days 1 and 5; assay type: functional, Mus musculus
[11] = test system: L1210; experiment: (§1) Ratio of the median survival time (treated(T) versus control(C)) at a dose of 50 mg/kg, on days 1 and 5; assay type: functional, Mus musculus
[12] = test system: Mus musculus; experiment: Ratio of the median survival time (treated(T) versus control(C)) at a dose of 25 mg/Kg on days 1 and 5; assay type: functional
[13] = The number of mice survived to that of total at a dose of 25 mg/Kg on 30th day: 4/5; assay type: functional
[14] = test system: L1210; experiment: Effect dose of 50 mg/kg on day 3, before L1210 cell transplantation in mice; assay type: functional, Mus musculus
[15] = test system: L1210; experiment: Median survival time at a compound dose of 200 mg/kg, in mice bearing L1210 cells on days 1 and 5; Toxic; assay type: functional, organism-based; design: dose 200 mg/kg; details: Mus musculus
[16] = test system: L1210; experiment: Median survival time at a compound dose of 25 mg/Kg, in mice bearing L1210 cells on days 1 and 5; assay type: functional, Mus musculus
[17] = test system: Mus musculus; experiment: as §1; assay type: functional
[18] = The number of mice survived to that of total when no compound dose was given on 30th day; assay type: functional
[19] = test system: L1210; experiment: (§2) Median survival time at a compound dose of 100 mg/kg, in mice bearing L1210 cells on days 1 and 5; assay type: functional, Mus musculus
[20] = The number of mice survived to that of total at a dose of 50 mg/Kg on 30th day; assay type: functional
[21] = The number of mice survived to that of total at a dose of 100 mg/kg on 30th day; assay type: functional
[22] = test system: Mus musculus; experiment: (§3) Ratio of the median survival time (treated(T) versus control(C)) at a dose of 100 mg/kg, on days 1 and 5; assay type: functional
[23] = test system: L1210; experiment: Median survival time at a compound dose of 800 mg/kg (administered on days 1 & 5) in mice bearing L1210 cells; assay type: functional, organism-based; design: dose 800 mg/kg; details: Mus musculus
[24] = test system: L1210; experiment: as §2; assay type: functional; details: Mus musculus
[25] = The number of mice survived to that of total at a dose of 100 mg/kg on 30th day; 0/5; assay type: functional, organism-based; design: dose 100 mg/kg
[26] = The number of mice survived to that of total at a dose of 800 mg/kg on 30th day; 0/5; assay type: functional, organism-based; design: dose 800 mg/kg
[27] = test system: L1210; experiment: Ratio of the median survival time (treated(T) versus control(C)) at a dose of 400 mg/kg, on days 1 and 5; assay type: functional, organism-based; design: dose 400 mg/kg; details: Mus musculus
[28] = The number of mice survived to that of total at a dose of 400 mg/kg on 30th day; 0/5; assay type: functional, organism-based; design: dose 400 mg/kg
[29] = test system: L1210; experiment: Ratio of the median survival time (treated(T) versus control(C)) at a dose of 50x2 mg/kgxdays, on days 1 and 5; assay type: functional, organism-based; details: Mus musculus
[30] = test system: L1210; experiment: Ratio of the median survival time (treated(T) versus control(C)) at a dose of 100x2 mg/kgxdays, on days 1 and 5; assay type: functional, organism-based; details: Mus musculus
[31] = test system: L1210; experiment: Ratio of the median survival time (treated(T) versus control(C)) at a dose of 800 mg/kg, on days 1 and 5; assay type: functional, organism-based; design: dose 800 mg/kg; details: Mus musculus
[32] = test system: L1210; experiment: Median survival time at a compound dose of 400 mg/kg, in mice bearing L1210 cells on days 1 and 5; assay type: functional, organism-based; design: dose 400 mg/kg; details: Mus musculus
[33] = The number of mice survived to that of total at a dose of 50 mg/kg on 30th day; 1/5; assay type: functional
[34] = test system: L1210; experiment: as §3; assay type: functional, Mus musculus
[35] = The number of mice survived to that of total at a dose of 100 mg/kg on 30th day; 3/5; assay type: functional

IC50 [1]: 10.6 µM
Compound: O=c1[nH]c(=S)c2nc[nH]c2[nH]1

Compound: Nc1nc([SeH])c2ncn(C3O[C@H](CO)[C@H](O)[C@@H]3O)c2n1 (stereo partly drawn)
T/C [2]: 144.4%
Median survival time [3]: 15 days
Median survival time [4]: 13 days
Median survival time [5]: 13 days
T/C [6]: 166.7%
Ratio [7]: 0
Ratio [8]: 0
Ratio [9]: 0
Median survival time [10]: 9 days
T/C [11]: 144.4%

Compound: Nc1nc2[nH]cnc2c(=S)[nH]1 [THIOGUANINE]
T/C [12]: >300%
Ratio [13]: 4
T/C [14]: 111%
Median survival time [15]: Toxic
Median survival time [5]: 12 days
Median survival time [16]: >30 days
T/C [17]: 120%
Ratio [18]: 0
Median survival time [19]: 10 days
Ratio [20]: 0
Median survival time [10]: 10 days
Ratio [21]: 0
T/C [22]: 100%

Compound: 2-(2-Amino-6-selanyl-purin-9-yl)-5-hydroxymethyl-tetrahydro-furan-3,4-diol platinum complex
Median survival time [23]: 14 days
Median survival time [24]: 11 days
Ratio [25]: 0
Ratio [26]: 0
Median survival time ([5]; Mus musculus): 12 days
T/C [27]: 133%
Ratio [7]: 0
Ratio [28]: 0
T/C [29]: 133%
T/C [30]: 111%
T/C [31]: 156%
Ratio [18]: 0
Median survival time [32]: 12 days
Median survival time ([10]; Mus musculus): 9 days

Compound: Nc1nc([SeH])c2[nH]cnc2n1
Ratio [33]: 1
T/C [14]: 100%
T/C [34]: >300%
Median survival time [5]: 18 days
Ratio [35]: 3
IC50 [1]: 0.00416 µM
Ratio [18]: 0
Median survival time [19]: >30 days
Median survival time [10]: 9 days
T/C [11]: 200%
